Data from PMC11475408, “All‐Inorganic Polyoxometalates Act as Superchaotropic Membrane Carriers” (Advanced Materials (Deerfield Beach, Fla.), 2023).

Experiments:
[1] = Hydrolysis/stability of POMs in buffer by NMR
Description: First, their long‐term (24 h and longer) fate in aqueous solution (slightly acidic and neutral) was investigated by applying the active NMR nuclei in their composition (Table S9 and Figures S24–S37, see the Supporting Information for details).
NMR-spectroscopic characterization of identity and stability
NMR spectroscopy for all POMs tested was performed under experimental conditions.

protamine = test: Supramolecular tandem assay of protamine hydrolysis (CX4/LCG); type: biochemical; conditions: time scale of transport experiments (10 min); 0.5 µM protamine, LCG/CX4 reporter, 10 mM Hepes pH 7.5; POM 0-500 µM
Description: 5. Hydrolytic activity of [(PZrW11)2]8−
We devised a supramolecular tandem enzyme assay[25-29] to check to which degree [(PZrW11)2]8− promotes peptide fragmentation, which has been reported to occur on a time scale of days at 60 °C.[30-31] Supramolecular tandem assay is a technique that allows real-time continuous monitoring of enzymatic activity by following a change in the concentration of a substrate or product as it competitively displaces a fluorescent reporter dye from the cavity of a macrocyclic host.
The assay therefore relies on the differential binding of the macrocycle with the fluorescent dye, the enzymatic substrate, and the corresponding product.
We selected p-sulfonatocalix[4]arene (CX4) as macrocyclic host and lucigenin (LCG) as fluorescent dye, since protamine […]
conversion can be directly monitored through a decrease in fluorescence. Trypsin, which is an endopeptidase that hydrolyzes peptide bonds on the C -terminal side of the amino acid arginine ,[32-33] was used as an example, for comparison.
Only minor hydrolysis (<10%) of protamine by the [(PZrW11)2]8− was observed on the time scale relevant for the transport […]

[2] = CF transport assay in EYPC⊃CF vesicles (carrier activity); type: biochemical; parameters: key to Carrier activity: ‐ – ‐: No detectable activity at pH 5.5 and 7.4
Excerpt: The capability of POMs to act as membrane carriers was explored first in large unilamellar vesicles (LUVs) loaded with carboxyfluorescein (CF).^[ [54], [55] ^] We selected […] representative cationic peptides, heptaarginine (heptaArg), heptalysine (heptaLys), protamine, and polyarginine (polyArg), as test cargos. Inside the LUVs, the CF dye was encapsulated at self‐quenching concentrations. With a suitable carrier, heptaArg can be taken up into the vesicles, bind with entrapped CF, and shuttle back to the exterior, diluting the previously quenched CF, and thereby restoring its fluorescence (Figure 1c). In the time‐resolved fluorescence experiments (Figure 2a), to test whether a particular POM acts as molecular carrier, the CF emission was continuously monitored during the addition of the inorganic carrier (t = 60 s) and after injection of the impermeable selected cargo (t = 120 s). Toward the end of the experiment (t = 600 s), the surfactant Triton X‐100 was added to release all the entrapped CF and allow normalization of the intensity data.
A thin lipid film was prepared by evaporating a lipid solution of EYPC (egg yolk phosphatidylcholine, 25 mg) in CHCl3 (1 mL) with a stream of nitrogen and then dried in vacuo overnight. The dry film was rehydrated with 1 mL buffer (50 mM CF, 10 mM Hepes, pH 7.4 or 50 mM CF, 10 mM Tris, pH 7.4) for 30 min at room temperature, subjected to freeze–thaw cycles (7 times) and extrusions (15 times) through a polycarbonate membrane (pore size 100 nm). Extravesicular components were removed by size exclusion chromatography (NAP‐25 column Sephadex G‐25 DNA grade) with 10 mM Hepes, 107 mM NaCl, pH 7.4, or 10 mM Hepes, 107 mM NaCl, pH 7.4. Phospholipid concentration was calculated by the Stewart assay.^[ [81] ^]
Acidic vesicles were prepared analogously but the rehydration and elution buffer were 50 mM CF, 10 mM Mes, pH 5.5 and 10 mM Mes, 107 mM NaCl, pH 5.5. respectively.
Vesicles stock solutions (5–10 µL) were diluted with the corresponding buffer in a disposable plastic cuvette and gently stirred (total volume 2000 µL, final lipid concentration 13 µM). Carboxyfluorescein fluorescence was monitored at λ em = 517 nm (λ ex = 492 nm) as a function of time after addition of POMs at 60 s, analyte at 120 s and Triton X‐100 (24 µL 1.2% wt/vol) at 600 s to lyse the vesicles, for calibration. Fluorescence intensities were normalized to fractional emission as (1) It=It−I0/I∞−I0 where I 0 = I t before POM addition and […] after lysis. For Hill analysis, I t before lysis was defined as transport activity, Y, and plotted against POM concentration, c, and fitted to the Hill Equation (2), to afford the activity in absence of POM, Y 0, the maximal activity, Y max, the concentration needed to achieve 50% of maximal activity, EC 50, and the Hill coefficient, n (2) Y=Y0+Ymax−Y0/1+EC50/c^n
In the transport measurements, where different carriers (POMs) are tested with the same cargo, the activator efficiency (E) is determined by their capacity to transport the impermeable cargo to the intravesicular region and is characterized by Y max, its maximal activity, and EC 50, the effective activator concentration. An ideal carrier reaches high Y max at low EC 50. To count both factors, the activator efficiency is defined as (3) E=YmaxpEC50/f were pEC 50 is the negative logarithm of the EC 50, and f a scaling factor, which was set to 20.6 to calibrate the highest (previously known) activation efficiency, E, as 10.^[ [55] ^]

[3] = 3 mM POM, 10 mM Hepes pH 7.5, 31P NMR integration

Substance: (Et2NH2)8[{α‐P^VW^VI 11O39Zr^IV(µ‐OH)(H2O)}2]·7H2O [[(PZrW11)2]^8‒]
- % parent anion, Hepes pH 7.5 after 1 day [1, 3]: 99%
- % parent anion, Hepes pH 7.5 freshly prepared [1, 3]: 99%
- Hydrolysis/stability pH 7.5 ([1]; 10 mM Hepes or Tris, 107 mM NaCl, pH 7.4, NMR, long-term (24 h and longer)): Stable
- Stability at pH 7.5 by NMR (in words) ([1]; Hepes or Tris-HCl pH 7.5, 27Al, 31P or 183W NMR, fresh and aged 1-3 days): remain unchanged
- Hydrolysis of protamine by the POM (protamine): < 10%
- Carrier activity ([2]; EYPC vesicles, pH 5.5 and 7.4, cargos heptaArg, protamine, polyArg ([AlMo6]: heptaArg and protamine only)): ‐ – ‐ ^k)
- Transport activity (in words) ([2]; EYPC⊃CF vesicles, neutral pH, carrier then cargo): neither transport activity nor membrane disruption was observed
